Reference: US20040171627A1, “Treatment of renal fibrosis” (Hadasit, priority 2001, published 2004)
Where “and” joins values, the source holds several entries; their conditions need not be identical. Identical values can stand only once. Entries after “also recorded” stand apart in the source; their conditions may differ.

Columns and labels:
[1] = tested on: RMR rats (5/6 nephrectomy), renal fibrosis; assay: Light microscopy of kidneys after 5/6 nephrectomy (RMR) in rats, semi-quantitative histological evaluation; format: in vivo, Male Wistar rats
Method: A solution of halofuginone was prepared by dissolution of powder of halofuginone hydrobromide in aqueous media containing suitable buffer. Male Wistar rats (weighing 300±30 g at the start of the experiment) were used in this study after being allowed to acclimatize to their environment for one week. Rats were assigned to undergo renal mass reduction (RMR) by 5/6 nephrectomy or sham operation, under anesthesia with intraperitoneal injection of pentobarbital (35 mg/kg body weight). RMR was performed by ligature of 2 of 3 major branches of the left renal artery and right nephrectomy in the same session. Sham rats undergo exposure of the kidneys and removal of the peri-renal fat, without undergoing RMR. After 24 hours recovery of the rats were assigned to one of the following groups: 1) Group I: RMR rats, oral gavage with halofuginone 0.2 mg/kg/day started 24 hours post surgery. 2) Group II: RMR rats, oral gavage with normal saline daily, started 24 hours post surgery. 3) Group III: age matched, sham operated rats served as the controls. All animals were allowed free access to a standard diet and water ad libitum. At sacrifice (10 weeks after RMR), kidneys were removed and processed for in situ hybridization, immunohistochemistry and histological evaluation. Light microscopy studies: specimens were fixed in 10% buffered formaldehyde and embedded in paraffin. Histological sections of 4-5μ thickness were stained with hematoxylin-eosin (HES), periodic acid Schiff (PAS) and Masson trichrome (light green). A semi-quantitative score was used to evaluate the degree of glomerulosclerosis, mesangial expansion and proliferation and tubulo-interstitial changes. A minimum of 30 glomeruli in each specimen was examined and the severity of the lesions was graded from 0 to 4+, according to the percentage of glomerular involvement. […] An injury score was obtained by multiplying the degree of damage (0-4+) by the percentage of glomeruli with the same degree of lesions. The evaluation of tubulointerstitial fibrosis was performed with the point-counting method using a Zeiss I integrating eyepiece.

[2] = tested on: RMR rats (5/6 nephrectomy); assay: Protein concentration in urine (proteinuria) of RMR rats; format: in vivo, Male Wistar rats; conditions: halofuginone 0.2 mg/kg/day oral, statistically significant from week 5 post-nephrectomy on (FIG. 2)
Method: Male Wistar rats (weighing 300±30 g at the start of the experiment) were used in this study. They were allowed to acclimatize to their environment for one week. Rats were assigned to undergo renal mass reduction (RMR) by 5/6 nephrectomy or Sham operation, under anesthesia with intraperitoneal injection of pentobarbital (35 mg/kg body weight). RMR was performed by ligature of 2 of 3 major branches of the left renal artery and right nephrectomy in the same session. Sham rats have undergone exposition of the kidneys and removal of the peri-renal fat. After 24 hours recovery the rats were assigned to one of the following groups: 1) Group I: RMR rats, oral gavage with halofuginone 0.2 mg/kg/day started 24 hours post surgery. 2) Group II: RMR rats, oral gavage with normal saline daily, started 24 hours post surgery. 3) Group III: age matched, sham operated rats served as the controls. […] Every week, systolic blood pressure was measured by tail cuff manometry and urine samples were collected individually in metabolic cages for determination of total protein and creatinine excretion. Protein concentration in urine was determined by a colorimetric method using pyrogallol-red molybdate complex (cobas integra 700, Roche). Body weight was also measured. […] Serum creatinine was measured with a Hitachi model 747 autoanalyzer, using the kinetic Jaffe method.

O=C(CC1NCCC[C@H]1O)Cn1cnc2cc(Br)c(Cl)cc2c1=O (stereo in doubt) [Halofuginone, 7-bromo-6-chloro-3-[3-(3-hydroxy-2-piperidinyl)-2-oxopropyl]-4(3H)-quinazolinone]
tubulointerstitial fibrosis compared to the control group ([1]; halofuginone 0.2 mg/kg/day oral, RMR rats, 10 weeks): significant decrease | presence of glomerulosclerosis and mesangial proliferation ([1]; halofuginone 0.2 mg/kg/day oral, RMR rats, 10 weeks, versus control): less accentuated | Tubules ([1]; individual rats of Group I, halofuginone 0.2 mg/kg/day oral gavage, 10 weeks after RMR, light microscopy): Normal; also recorded: Few atrophic | Glomerulus Proliferation ([1]; individual rats of Group I, halofuginone 0.2 mg/kg/day oral gavage, 10 weeks after RMR, light microscopy (preliminary results)): Mild (4×) and Moderate (2×) | Glomerulus Sclerosis ([1]; individual rats of Group I, halofuginone 0.2 mg/kg/day oral gavage, 10 weeks after RMR, light microscopy, graded 0 to 4+): 0 | levels of proteinuria versus control nephrectomized group [2]: lower levels of proteinuria
